According to article PMC7717600, “Novel [(N-alkyl-3-indolylmethylene)hydrazono]oxindoles arrest cell cycle and induce cell apoptosis by inhibiting CDK2 and Bcl-2: synthesis, biological evaluation and in silico studies” (Journal of Enzyme Inhibition and Medicinal Chemistry, 2020):

Tests used:
NCI-H522 = settings: NCI-H522, 10 μM
RPMI-8226 = settings: RPMI-8226, 10 μM
U251 = settings: U251, 10 μM
IGROV1 = settings: IGROV1, 10 μM
NCI/ADR-RES = settings: 10 μM
MOLT-4 = settings: MOLT-4, 10 μM
SK-MEL-28 = settings: SK-MEL-28, 10 μM
ACHN = settings: 10 μM
K-562 = settings: K-562, 10 μM
DU-145 = settings: DU-145, 10 μM
MDA-MB-468 = settings: MDA-MB-468, 10 μM
SNB-19 = settings: SNB-19, 10 μM
SF-268 = settings: SF-268, 10 μM
T-47D = settings: 10 μM
BT-549 = settings: BT-549, 10 μM
COLO 205 = test: NCI SRB screening; type: cell-based, human; settings: COLO 205, 10 μM
OVCAR-3 = settings: OVCAR-3, 10 μM
LOX IMVI = test: NCI SRB screening; type: cell-based, human; settings: 10 μM
HCC-2998 = test: NCI SRB screening; type: cell-based, human; settings: HCC-2998, 10 μM
MDA-MB-231 = test: SRB anti-proliferative assay; type: cell-based; settings: Homo sapiens; MDA-MB-231, SRB, mean ± SE of 3
Experimental: (§1) All the newly prepared target conjugates (7, 8a–c, 9 and 10a–e) were investigated for the prospective growth inhibitory actions against three different cancer cell lines viz.; A-549, MDA-MB-231, and HCT-116, using the sulforhodamine B colorimetric (SRB) assay. Staurosporine, a clinically used antitumor drug, was co-assayed as a reference agent for the experiment.
(§2) Examination of the cytotoxic activity for the target conjugates was carried out in accordance with the SRB colorimetric assay protocol, as described previously.
(§3) In vitro anti-proliferative activity assay
(§4) Cells at a concentration of 0.50 x
(§5) Sulfo-Rhodamine-B stain (SRB) assay.
(§6) cell to the wall of the plate.
(§7) wells were prepared for each individual dose).
(§8) Unbound dye was removed by four

HCT-116 [1] = test: SRB anti-proliferative assay; type: cell-based; settings: Homo sapiens; HCT-116, SRB, mean ± SE of 3
Experimental: as §1, §2, §3, §4, §5, §6, §7, §8

SNB-75 = settings: SNB-75, 10 μM
EKVX = settings: 10 μM
KM12 = settings: KM12, 10 μM
UO-31 = settings: UO-31, 10 μM
HCT-116 [2] = settings: HCT-116, 10 μM
SF-295 = settings: SF-295, 10 μM
SR = settings: 10 μM
PC-3 = test: NCI SRB screening; type: cell-based, human; settings: PC-3, 10 μM
HOP-62 = settings: HOP-62, 10 μM
HT29 = settings: HT29, 10 μM
HL-60(TB) = settings: HL-60(TB), 10 μM
786-0 = settings: 786-0, 10 μM
UACC-257 = settings: UACC-257, 10 μM
RXF 393 = settings: RXF 393, 10 μM
A-549 = test: SRB anti-proliferative assay; type: cell-based; settings: Homo sapiens, A549; A-549, SRB, mean ± SE of 3
Experimental: Staurosporine, a clinically used antitumor drug, was co-assayed as a reference agent for the experiment.
as §2, §3, §4, §5, §6, §7, §8

SN12C = settings: 10 μM
NCI-H226 = settings: NCI-H226, 10 μM
MCF7 = settings: MCF7, 10 μM
NCI-H23 = settings: NCI-H23, 10 μM
A498 = settings: A498, 10 μM
MDA-MB-435 = test: NCI SRB screening; type: cell-based; settings: MDA-MB-435, 10 μM
SK-OV-3 = settings: SK-OV-3, 10 μM

For `CCCn1cc(/C=N/N=C2\C(=O)Nc3ccc(OC(F)(F)F)cc32)c2ccccc21` [Compound 8b], which GI % (NCI-H522) is on record?
The GI % was 19%.

What about the GI % (RPMI-8226) of the same compound?
The GI % was 30%.

What about the GI % (U251) of the same compound?
The GI % was 13.32%.

And the GI % (IGROV1)?
The GI % was “– (Only GI % higher than 10% are shown)”.

And the GI % (NCI/ADR-RES)?
Its GI % is 15%.

What about the GI % (MOLT-4) of the same compound?
Its GI % is 50%.

And the GI % (SK-MEL-28)?
Its GI % is “– (Only GI % higher than 10% are shown)”.

And the GI % (ACHN)?
Its GI % is 15%.

What about the GI % (K-562) of the same compound?
Its GI % is 33%.

And the GI % (DU-145)?
Its GI % is 13%.

What about the GI % (MDA-MB-468) of the same compound?
Its GI % is 11%.

And the GI % (SNB-19)?
The GI % was “– (Only GI % higher than 10% are shown)”.

And the GI % (SF-268)?
The GI % was “– (Only GI % higher than 10% are shown)”.

And the GI % (T-47D)?
The GI % was 35%.

What about the GI % (BT-549) of the same compound?
Its GI % is “– (Only GI % higher than 10% are shown)”.

What about the GI % (COLO 205) of the same compound?
Its GI % is “– (Only GI % higher than 10% are shown)”.

What about the GI % (OVCAR-3) of the same compound?
The GI % was “– (Only GI % higher than 10% are shown)”.

And the GI % (LOX IMVI)?
Its GI % is “– (Only GI % higher than 10% are shown)”.

What about the GI % (HCC-2998) of the same compound?
The GI % was “– (Only GI % higher than 10% are shown)”.

What about the IC50 (MDA-MB-231) of the same compound?
The IC50 was 8.9 ± 0.61 µM.

And the IC50 (HCT-116 [1])?
The IC50 was 19.1 ± 1.34 µM.

And the GI % (SNB-75)?
Its GI % is “– (Only GI % higher than 10% are shown)”.

What about the GI % (EKVX) of the same compound?
Its GI % is 40%.

And the GI % (KM12)?
Its GI % is “– (Only GI % higher than 10% are shown)”.

What about the GI % (UO-31) of the same compound?
The GI % was 19%.

What about the GI % (HCT-116 [2]) of the same compound?
Its GI % is 21%.

And the GI % (SF-295)?
The GI % was “– (Only GI % higher than 10% are shown)”.

And the GI % (SR)?
Its GI % is “– (Only GI % higher than 10% are shown)”.

And the GI % (PC-3)?
Its GI % is 32%.

And the GI % (HOP-62)?
Its GI % is 21%.

What about the GI % (HT29) of the same compound?
Its GI % is 25%.

What about the GI % (HL-60(TB)) of the same compound?
The GI % was 12%.

And the GI % (786-0)?
Its GI % is “– (Only GI % higher than 10% are shown)”.

And the GI % (UACC-257)?
The GI % was “– (Only GI % higher than 10% are shown)”.

What about the GI % (RXF 393) of the same compound?
The GI % was “– (Only GI % higher than 10% are shown)”.

And the IC50 (A-549)?
Its IC50 is 9.2 ± 0.78 µM.

And the GI % (SN12C)?
The GI % was “– (Only GI % higher than 10% are shown)”.

What about the GI % (NCI-H226) of the same compound?
The GI % was “– (Only GI % higher than 10% are shown)”.

What about the GI % (MCF7) of the same compound?
The GI % was 29%.

And the GI % (NCI-H23)?
Its GI % is 12%.

What about the GI % (A498) of the same compound?
Its GI % is “– (Only GI % higher than 10% are shown)”.

What about the GI % (MDA-MB-435) of the same compound?
The GI % was “– (Only GI % higher than 10% are shown)”.

What about the GI % (SK-OV-3) of the same compound?
Its GI % is “– (Only GI % higher than 10% are shown)”.

With `CCCn1cc(C=NN=C2C(=O)Nc3ccc([N+](=O)[O-])cc32)c2ccccc21` [Compound 8c] as the compound, how does the GI % (NCI-H522) read?
The GI % was “– (Only GI % higher than 10% are shown)”.

What about the GI % (RPMI-8226) of the same compound?
The GI % was “– (Only GI % higher than 10% are shown)”.

And the GI % (U251)?
Its GI % is 28%.

And the GI % (IGROV1)?
The GI % was “– (Only GI % higher than 10% are shown)”.

What about the GI % (NCI/ADR-RES) of the same compound?
The GI % was “– (Only GI % higher than 10% are shown)”.

And the GI % (MOLT-4)?
Its GI % is “– (Only GI % higher than 10% are shown)”.

And the GI % (SK-MEL-28)?
Its GI % is “– (Only GI % higher than 10% are shown)”.

What about the GI % (ACHN) of the same compound?
Its GI % is “– (Only GI % higher than 10% are shown)”.

And the GI % (K-562)?
The GI % was 18%.

What about the GI % (DU-145) of the same compound?
The GI % was “– (Only GI % higher than 10% are shown)”.

What about the GI % (MDA-MB-468) of the same compound?
Its GI % is 17%.

And the GI % (SNB-19)?
The GI % was 22%.

What about the GI % (SF-268) of the same compound?
The GI % was “– (Only GI % higher than 10% are shown)”.

What about the GI % (T-47D) of the same compound?
Its GI % is “– (Only GI % higher than 10% are shown)”.

And the GI % (BT-549)?
The GI % was “– (Only GI % higher than 10% are shown)”.

What about the GI % (COLO 205) of the same compound?
The GI % was “– (Only GI % higher than 10% are shown)”.

What about the GI % (OVCAR-3) of the same compound?
Its GI % is “– (Only GI % higher than 10% are shown)”.

And the GI % (LOX IMVI)?
Its GI % is “– (Only GI % higher than 10% are shown)”.

And the GI % (HCC-2998)?
Its GI % is “– (Only GI % higher than 10% are shown)”.

What about the IC50 (MDA-MB-231) of the same compound?
The IC50 was 15.6 ± 0.98 µM.

And the IC50 (HCT-116 [1])?
Its IC50 is 6.4 ± 0.5 µM.

What about the GI % (SNB-75) of the same compound?
The GI % was “– (Only GI % higher than 10% are shown)”.

What about the GI % (EKVX) of the same compound?
The GI % was “– (Only GI % higher than 10% are shown)”.

And the GI % (KM12)?
Its GI % is 11%.

What about the GI % (UO-31) of the same compound?
The GI % was “– (Only GI % higher than 10% are shown)”.

And the GI % (HCT-116 [2])?
Its GI % is 20%.

What about the GI % (SF-295) of the same compound?
Its GI % is “– (Only GI % higher than 10% are shown)”.

And the GI % (SR)?
Its GI % is 19%.

What about the GI % (PC-3) of the same compound?
Its GI % is “– (Only GI % higher than 10% are shown)”.

What about the GI % (HOP-62) of the same compound?
The GI % was “– (Only GI % higher than 10% are shown)”.

And the GI % (HT29)?
The GI % was “– (Only GI % higher than 10% are shown)”.

And the GI % (HL-60(TB))?
Its GI % is 10%.

And the GI % (786-0)?
Its GI % is “– (Only GI % higher than 10% are shown)”.

What about the GI % (UACC-257) of the same compound?
The GI % was “– (Only GI % higher than 10% are shown)”.

And the GI % (RXF 393)?
The GI % was “– (Only GI % higher than 10% are shown)”.

And the IC50 (A-549)?
The IC50 was 12.3 ± 1.05 µM.

And the GI % (SN12C)?
The GI % was “– (Only GI % higher than 10% are shown)”.

And the GI % (NCI-H226)?
The GI % was “– (Only GI % higher than 10% are shown)”.

What about the GI % (MCF7) of the same compound?
Its GI % is 15%.

What about the GI % (NCI-H23) of the same compound?
The GI % was “– (Only GI % higher than 10% are shown)”.

And the GI % (A498)?
Its GI % is “– (Only GI % higher than 10% are shown)”.

What about the GI % (MDA-MB-435) of the same compound?
Its GI % is “– (Only GI % higher than 10% are shown)”.

What about the GI % (SK-OV-3) of the same compound?
Its GI % is “– (Only GI % higher than 10% are shown)”.
